Several values for one entry are separate records, joined by “and”; a condition that tells them apart may be missing. Equal values may be shown once. Inconclusive results and toxic doses are left out. How the source made its calls: active means survival T/C of 150% or more; inactive means T/C below 125% in these data.
System: CD2F1 mice, L1210 leukemia ip, survival T/C
Experiment: NCI In Vivo Anticancer Drug Screen. Data for tumor model L1210 Leukemia (intraperitoneal) in CD2F1 (CDF1) mice
Details: higher = longer survival
How it was run: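 Ratio T/C, where T is the treated-group value and C the vehicle-dosed control value, from mice implanted with a transplantable tumor.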

[1] = endpoint: mean survival time, dose: 25.0 mg/kg/injection, schedule: Q01DX009 (ip), vehicle: Klucel (hydroxypropylcellulose) (HPC)
[2] = endpoint: mean survival time, dose: 50.0 mg/kg/injection, schedule: Q01DX009 (ip), vehicle: Klucel (hydroxypropylcellulose) (HPC)
[3] = endpoint: mean survival time, dose: 100.0 mg/kg/injection, schedule: Q01DX009 (ip), vehicle: Klucel (hydroxypropylcellulose) (HPC)
[4] = endpoint: mean survival time, dose: 100.0 mg/kg/injection, schedule: Q04DX003 (ip), vehicle: saline with Tween-80
[5] = endpoint: mean survival time, dose: 200.0 mg/kg/injection, schedule: Q04DX003 (ip), vehicle: saline with Tween-80
[6] = endpoint: mean survival time, dose: 400.0 mg/kg/injection, schedule: Q04DX003 (ip), vehicle: saline with Tween-80
[7] = endpoint: mean survival time, dose: 100.0 mg/kg/injection, schedule: Q01DX009 (ip), vehicle: saline with Tween-80
[8] = endpoint: mean survival time, dose: 200.0 mg/kg/injection, schedule: Q01DX009 (ip), vehicle: saline with Tween-80
[9] = endpoint: mean survival time, dose: 25.0 mg/kg/injection, schedule: Q04DX002 (ip), vehicle: saline with Tween-80
[10] = endpoint: mean survival time, dose: 50.0 mg/kg/injection, schedule: Q04DX002 (ip), vehicle: saline with Tween-80
[11] = endpoint: mean survival time, dose: 100.0 mg/kg/injection, schedule: Q04DX002 (ip), vehicle: saline with Tween-80
[12] = endpoint: mean survival time, dose: 12.5 mg/kg/injection, schedule: Q04DX002 (ip), vehicle: saline with Tween-80
[13] = endpoint: mean survival time, dose: 50.0 mg/kg/injection, schedule: Q01DX009 (ip), vehicle: saline with Tween-80

Measured: T/C

Cc1cc(N(CCI)CCI)ccc1N=Nc1ccccc1C(=O)O
inactive: [1] 122 % of control | [2] 122 % of control | [3] 122 % of control

CC(=O)CC(=O)OCOC(=O)CC(C)=O
inactive: endpoint: mean survival time, dose: 100.0 mg/kg/injection, schedule: Q04DX003 (ip), vehicle: Klucel (hydroxypropylcellulose) (HPC) 102 % of control | endpoint: mean survival time, dose: 200.0 mg/kg/injection, schedule: Q04DX003 (ip), vehicle: Klucel (hydroxypropylcellulose) (HPC) 106 % of control | endpoint: mean survival time, dose: 400.0 mg/kg/injection, schedule: Q04DX003 (ip), vehicle: Klucel (hydroxypropylcellulose) (HPC) 106 % of control

OCc1ccn2c1CCC2
inactive: endpoint: mean survival time, dose: 12.5 mg/kg/injection, schedule: Q01DX009 (ip), vehicle: Klucel (hydroxypropylcellulose) (HPC) 101 % of control | [2] 100 % of control | [3] 101 % of control

CCOC(=O)C(c1ccccc1)c1ccccc1
inactive: [4] 102 % of control | [5] 111 % of control | [6] 103 % of control

CC1(C)C(CC(=O)O)CC1C(=O)O (stereo not drawn)
inactive: [7] 98 % of control | [4] 100 % of control | [8] 98 % of control | [5] 96 % of control | [6] 100 % of control

C[N+](C)(C)C1CCCC1O (stereo not drawn)
inactive: [9] 98 % of control | [10] 98 % of control | [11] 95 % of control | endpoint: mean survival time, dose: 200.0 mg/kg/injection, schedule: Q04DX002 (ip), vehicle: saline with Tween-80 95 % of control

CCCC(P(=O)(c1ccccc1)c1ccccc1)[P+](CC)(c1ccccc1)c1ccccc1 (stereo not drawn)
inactive: endpoint: mean survival time, dose: 6.25 mg/kg/injection, schedule: Q04DX002 (ip), vehicle: saline with Tween-80 100 % of control | [12] 96 % of control | [9] 92 % of control

CNc1nc(SC)nc2c1cnn2C1OC(CO)C(O)C1O (stereo not drawn)
inactive: endpoint: median survival time, dose: 10.75 mg/kg/injection, schedule: Q01DX005 (ip), vehicle: saline with Tween-80 103 % of control | endpoint: median survival time, dose: 21.5 mg/kg/injection, schedule: Q01DX005 (ip), vehicle: saline with Tween-80 97 % of control | endpoint: median survival time, dose: 43.0 mg/kg/injection, schedule: Q01DX005 (ip), vehicle: saline with Tween-80 107 % of control | endpoint: median survival time, dose: 86.0 mg/kg/injection, schedule: Q01DX005 (ip), vehicle: saline with Tween-80 100 % of control

CCCCCCCCCC(=O)CCCCC
inactive: endpoint: mean survival time, dose: 100.0 mg/kg/injection, schedule: Q04DX003 (ip), vehicle: other 89 % of control | endpoint: mean survival time, dose: 200.0 mg/kg/injection, schedule: Q04DX003 (ip), vehicle: other 94 % of control | endpoint: mean survival time, dose: 400.0 mg/kg/injection, schedule: Q04DX003 (ip), vehicle: other 103 % of control

O=C(OC(=O)c1cccc(-c2ccccc2)c1)c1cccc(-c2ccccc2)c1
inactive: [3] 109 % of control | endpoint: mean survival time, dose: 200.0 mg/kg/injection, schedule: Q01DX009 (ip), vehicle: Klucel (hydroxypropylcellulose) (HPC) 100 % of control | endpoint: mean survival time, dose: 400.0 mg/kg/injection, schedule: Q01DX009 (ip), vehicle: Klucel (hydroxypropylcellulose) (HPC) 97 % of control

Cc1ccc(S(=O)(=O)F)c(Cl)c1
inactive: endpoint: mean survival time, dose: 50.0 mg/kg/injection, schedule: Q01DX009 (ip), vehicle: saline sonified 97 % of control | endpoint: mean survival time, dose: 100.0 mg/kg/injection, schedule: Q01DX009 (ip), vehicle: saline sonified 97 % of control | endpoint: mean survival time, dose: 200.0 mg/kg/injection, schedule: Q01DX009 (ip), vehicle: saline sonified 95 % of control

CC(C)N(Cl)S(C)(=O)=O
inactive: endpoint: mean survival time, dose: 25.0 mg/kg/injection, schedule: Q04DX003 (ip), vehicle: saline with Tween-80 97 % of control | endpoint: mean survival time, dose: 50.0 mg/kg/injection, schedule: Q04DX003 (ip), vehicle: saline with Tween-80 93 % of control | [4] 95 % of control

Cc1ccc(NC(=O)OCCOc2ccc([N+](=O)[O-])cc2)cc1C
inactive: [13] 108 % of control | [7] 92 % of control | [8] 92 % of control

OC1CCCC2CCCNC12 (stereo not drawn)
inactive: endpoint: mean survival time, dose: 1.25 mg/kg/injection, schedule: Q01DX009 (ip), vehicle: Klucel (hydroxypropylcellulose) (HPC) 109 % of control | endpoint: mean survival time, dose: 3.12 mg/kg/injection, schedule: Q01DX009 (ip), vehicle: saline with Tween-80 98 % of control | endpoint: mean survival time, dose: 6.25 mg/kg/injection, schedule: Q01DX009 (ip), vehicle: saline with Tween-80 88 % of control | endpoint: mean survival time, dose: 12.5 mg/kg/injection, schedule: Q01DX009 (ip), vehicle: saline with Tween-80 103 % of control | [1] 107 % of control | endpoint: mean survival time, dose: 25.0 mg/kg/injection, schedule: Q01DX009 (ip), vehicle: saline with Tween-80 104 % of control | [2] 98 % of control | [13] 110 % of control

CC(c1ccccc1)n1cncc1CN1CCOCC1 (stereo not drawn)
inactive: [12] 91 % of control | endpoint: mean survival time, dose: 25.0 mg/kg/injection, schedule: Q01DX001 (ip), vehicle: saline with Tween-80 102 % of control | [9] 98 % of control | endpoint: mean survival time, dose: 50.0 mg/kg/injection, schedule: Q01DX001 (ip), vehicle: saline with Tween-80 102 % of control | [10] 98 % of control | endpoint: mean survival time, dose: 100.0 mg/kg/injection, schedule: Q01DX001 (ip), vehicle: saline with Tween-80 95 % of control and 98 % of control | [11] 95 % of control

From PubChem BioAssay AID256 (DTP/NCI, 2004)
